Measured values reported in ChEMBL document CHEMBL6087427, “Discovery of novel cyclopentane carboxylic acids as potent and selective inhibitors of NaV1.7” (Bioorg Med Chem Lett, 2025).
Converted amounts (≈) assume the structure as drawn. Each block holds one molecule with its values, some of them ahead of it.

Columns and labels:
[1] = biological target: T1, Sodium channel protein type 9 subunit alpha (Homo sapiens, UniProt Q15858); assay: Displacement of [3H]GX-545 from Nav1.7 VSD4 (unknown origin)
Target sequence in this assay (Q15858 whole entry): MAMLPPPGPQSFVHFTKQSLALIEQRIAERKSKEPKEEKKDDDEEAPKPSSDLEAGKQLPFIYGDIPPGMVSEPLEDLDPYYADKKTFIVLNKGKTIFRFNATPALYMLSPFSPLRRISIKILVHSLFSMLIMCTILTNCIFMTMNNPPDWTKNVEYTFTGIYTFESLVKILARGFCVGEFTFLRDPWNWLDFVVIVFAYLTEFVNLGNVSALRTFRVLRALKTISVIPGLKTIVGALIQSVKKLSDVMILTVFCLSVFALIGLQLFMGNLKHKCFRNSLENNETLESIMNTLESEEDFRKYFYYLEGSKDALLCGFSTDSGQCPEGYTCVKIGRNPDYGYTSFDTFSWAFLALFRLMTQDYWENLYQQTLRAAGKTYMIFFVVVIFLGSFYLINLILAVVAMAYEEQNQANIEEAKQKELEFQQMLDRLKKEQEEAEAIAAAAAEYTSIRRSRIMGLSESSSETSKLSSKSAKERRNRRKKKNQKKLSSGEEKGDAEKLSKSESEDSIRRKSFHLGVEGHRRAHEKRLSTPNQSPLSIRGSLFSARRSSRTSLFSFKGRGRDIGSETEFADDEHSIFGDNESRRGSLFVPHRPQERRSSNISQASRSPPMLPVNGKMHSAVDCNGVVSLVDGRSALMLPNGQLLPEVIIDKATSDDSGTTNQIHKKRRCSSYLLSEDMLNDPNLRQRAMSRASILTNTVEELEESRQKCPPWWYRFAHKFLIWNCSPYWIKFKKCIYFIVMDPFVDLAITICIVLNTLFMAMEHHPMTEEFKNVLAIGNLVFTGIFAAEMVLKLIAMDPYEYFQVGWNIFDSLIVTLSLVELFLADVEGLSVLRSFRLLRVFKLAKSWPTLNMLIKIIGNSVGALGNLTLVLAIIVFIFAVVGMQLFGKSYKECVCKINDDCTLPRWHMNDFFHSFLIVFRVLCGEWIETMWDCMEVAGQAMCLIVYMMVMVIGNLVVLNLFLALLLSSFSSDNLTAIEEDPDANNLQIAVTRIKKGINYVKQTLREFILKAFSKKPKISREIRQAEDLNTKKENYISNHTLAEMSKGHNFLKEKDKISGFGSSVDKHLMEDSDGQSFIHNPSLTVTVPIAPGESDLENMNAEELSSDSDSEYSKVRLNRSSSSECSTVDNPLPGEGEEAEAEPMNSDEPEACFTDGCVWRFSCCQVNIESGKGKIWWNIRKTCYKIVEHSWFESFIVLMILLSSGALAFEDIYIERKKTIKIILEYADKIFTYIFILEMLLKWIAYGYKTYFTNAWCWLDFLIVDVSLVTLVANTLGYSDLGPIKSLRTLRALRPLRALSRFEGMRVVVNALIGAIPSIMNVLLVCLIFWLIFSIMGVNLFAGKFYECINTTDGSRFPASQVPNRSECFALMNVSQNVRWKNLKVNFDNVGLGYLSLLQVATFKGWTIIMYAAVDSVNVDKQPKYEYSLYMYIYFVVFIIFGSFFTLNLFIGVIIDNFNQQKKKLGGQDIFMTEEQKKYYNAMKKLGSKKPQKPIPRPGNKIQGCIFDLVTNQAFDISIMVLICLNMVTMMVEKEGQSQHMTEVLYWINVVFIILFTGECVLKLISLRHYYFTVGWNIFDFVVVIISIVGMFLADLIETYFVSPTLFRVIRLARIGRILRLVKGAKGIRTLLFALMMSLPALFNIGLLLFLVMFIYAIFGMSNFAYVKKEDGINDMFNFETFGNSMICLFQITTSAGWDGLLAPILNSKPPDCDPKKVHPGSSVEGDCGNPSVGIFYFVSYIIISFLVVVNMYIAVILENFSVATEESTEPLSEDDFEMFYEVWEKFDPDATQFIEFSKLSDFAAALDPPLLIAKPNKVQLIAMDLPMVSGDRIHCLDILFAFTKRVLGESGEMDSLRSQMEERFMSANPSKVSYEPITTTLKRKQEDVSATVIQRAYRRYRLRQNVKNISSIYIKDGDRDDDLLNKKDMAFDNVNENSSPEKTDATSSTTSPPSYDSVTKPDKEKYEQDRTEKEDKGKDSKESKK

Mus musculus [2] = assay: Analgesic activity in aconitine-induced nociception in IEM transgenic FVB mouse model assessed as reduction in pain response at 10 mg/kg, po pretreated for 2 hrs followed by aconitine administration measured for 30 mins post-aconitine dose relative to control; type: functional; design: scale not given: the % may be the effect or the level left; settings: time 2.5 hrs
[3] = Drug concentration in plasma of aconitine-induced nociception in IEM transgenic FVB mouse model at 30 mg/kg, po pretreated for 2 hrs followed by aconitine administration measured for 30 mins post-aconitine dose; type: ADME, organism-based
[4] = Volume of distribution at steady state in mouse at 1 mg/kg, iv; type: ADME, organism-based; settings: in vivo, read-out: Vdss
[5] = AUC in mouse at 3 mg/kg, po; type: ADME, organism-based; settings: in vivo
Mus musculus [6] = assay: Analgesic activity in aconitine-induced nociception in IEM transgenic FVB mouse model assessed as reduction in pain response at 100 mg/kg, po pretreated for 2 hrs followed by aconitine administration measured for 30 mins post-aconitine dose relative to control; type: functional; design: scale not given: the % may be the effect or the level left; settings: time 2.5 hrs
Mus musculus [7] = assay: Analgesic activity in aconitine-induced nociception in IEM transgenic FVB mouse model assessed as inhibition of nociceptive behaviour at 3 to 100 mg/kg, po pretreated for 2 hrs followed by aconitine administration measured for 30 mins post-aconitine dose; type: functional, organism-based
[8] = Oral bioavailability in mouse at 3 mg/kg; type: ADME, organism-based; settings: in vivo
Cytochrome P450 1A2 = biological target: T2, Cytochrome P450 1A2 (Homo sapiens, UniProt P05177); assay: Inhibition of CYP1A2 (unknown origin); type: ADME
T2 sequence (P05177 whole entry): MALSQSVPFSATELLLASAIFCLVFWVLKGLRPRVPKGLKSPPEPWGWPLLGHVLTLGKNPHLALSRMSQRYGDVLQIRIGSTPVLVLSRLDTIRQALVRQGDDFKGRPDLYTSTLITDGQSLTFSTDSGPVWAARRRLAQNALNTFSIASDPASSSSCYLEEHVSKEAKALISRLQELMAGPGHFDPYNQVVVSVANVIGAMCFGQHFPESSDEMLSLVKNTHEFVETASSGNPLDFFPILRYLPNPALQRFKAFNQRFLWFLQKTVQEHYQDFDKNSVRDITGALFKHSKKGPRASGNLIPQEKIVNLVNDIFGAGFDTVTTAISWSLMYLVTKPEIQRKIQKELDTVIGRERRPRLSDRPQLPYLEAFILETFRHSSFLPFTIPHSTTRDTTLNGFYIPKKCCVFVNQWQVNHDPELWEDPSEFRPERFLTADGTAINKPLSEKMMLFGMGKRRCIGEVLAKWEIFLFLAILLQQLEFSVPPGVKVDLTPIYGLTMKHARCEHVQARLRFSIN

[9] = Kinetic solubility of compound; type: physicochemical; settings: read-out: Kinetic_solubility
[10] = Metabolic stability in human liver microsomes assessed as hepatic clearance; type: ADME, Microsome
[11] = Drug concentration in brain of aconitine-induced nociception in IEM transgenic FVB mouse model at EC50 pretreated orally for 2 hrs followed by aconitine administration measured for 30 mins post-aconitine dose; type: ADME, tissue-based; settings: route po, read-out: Ct
[12] = Plasma protein binding in human; type: ADME, cell-free; settings: read-out: PPB
Mus musculus [13] = assay: Analgesic activity in aconitine-induced nociception in IEM transgenic FVB mouse model assessed as reduction in pain response at 3 mg/kg, po pretreated for 2 hrs followed by aconitine administration measured for 30 mins post-aconitine dose relative to control; type: functional; design: scale not given: the % may be the effect or the level left; settings: time 2.5 hrs
[14] = Ratio of drug concentration in brain to plasma of aconitine-induced nociception in IEM transgenic FVB mouse model at EC50 pretreated orally for 2 hrs followed by aconitine administration measured for 30 mins post-aconitine dose; type: ADME; settings: route po, read-out: BPR
[15] = Drug concentration in plasma of aconitine-induced nociception in IEM transgenic FVB mouse model at 10 mg/kg, po pretreated for 2 hrs followed by aconitine administration measured for 30 mins post-aconitine dose; type: ADME, organism-based
[16] = Plasma protein binding in mouse; type: ADME, cell-free; settings: read-out: PPB
Cytochrome P450 3A4 = Cytochrome P450 3A4 (Homo sapiens, UniProt P08684); assay: Inhibition of CYP3A4 (unknown origin); type: ADME
[17] = Half life in mouse at 1 mg/kg, iv; type: ADME, organism-based; settings: in vivo
[18] = Half life in mouse at 3 mg/kg, po; type: ADME, organism-based; settings: in vivo
[19] = Metabolic stability in human hepatocytes assessed as hepatic clearance; type: ADME, cell-based, Hepatocyte
Mus musculus [20] = assay: Analgesic activity in aconitine-induced nociception in IEM transgenic FVB mouse model assessed as reduction in pain response at 30 mg/kg, po pretreated for 2 hrs followed by aconitine administration measured for 30 mins post-aconitine dose relative to control; type: functional; design: scale not given: the % may be the effect or the level left; settings: time 2.5 hrs
MDR1 (P-gp) = assay: Efflux ratio in MDCK-MDR1 cells; type: ADME, cell-based, Canis lupus familiaris; settings: dog
[21] = biological target: T1, Sodium channel protein type 9 subunit alpha; assay: Inhibition of human Nav1.7 by sodium flux assay
Target sequence in this assay (Q15858 whole entry): as the sequence (Q15858 whole entry) above

Cytochrome P450 2D6 = Cytochrome P450 2D6 (Homo sapiens, UniProt P10635); assay: Inhibition of CYP2D6 (unknown origin); type: ADME
[22] = biological target: Sodium channel protein type 8 subunit alpha (Homo sapiens, UniProt Q9UQD0); assay: Inhibition of human Nav1.6 by patch clamp electrophysiology
[23] = Drug concentration in plasma of aconitine-induced nociception in IEM transgenic FVB mouse model at 3 mg/kg, po pretreated for 2 hrs followed by aconitine administration measured for 30 mins post-aconitine dose; type: ADME, organism-based
[24] = Metabolic stability in mouse liver microsomes assessed as hepatic clearance; type: ADME, Microsome
Cytochrome P450 2C19 = Cytochrome P450 2C19 (Homo sapiens, UniProt P33261); assay: Inhibition of CYP2C19 (unknown origin); type: ADME
[25] = Apparent permeability across apical to basolateral side in MDCK cells; type: ADME, cell-based, Canis lupus familiaris; settings: dog
[26] = biological target: T1, Sodium channel protein type 9 subunit alpha; assay: Inhibition of human Nav1.7 by patch clamp electrophysiology
Target sequence in this assay (Q15858 whole entry): as the sequence (Q15858 whole entry) above

[27] = Cmax in mouse at 3 mg/kg, po; type: ADME, organism-based; settings: in vivo
[28] = Metabolic stability in mouse hepatocytes assessed as hepatic clearance; type: ADME, cell-based, Hepatocyte
[29] = biological target: Sodium channel protein type 5 subunit alpha (Homo sapiens, UniProt Q14524); assay: Inhibition of human Nav1.5 by patch clamp electrophysiology
[30] = biological target: Sodium channel protein type 2 subunit alpha (Homo sapiens, UniProt Q99250); assay: Inhibition of human Nav1.2 by patch clamp electrophysiology
[31] = biological target: Sodium channel protein type 1 subunit alpha (Homo sapiens, UniProt P35498); assay: Inhibition of human Nav1.1 by patch clamp electrophysiology
[32] = Drug concentration in plasma of aconitine-induced nociception in IEM transgenic FVB mouse model at 100 mg/kg, po pretreated for 2 hrs followed by aconitine administration measured for 30 mins post-aconitine dose; type: ADME, organism-based
Cytochrome P450 2C9 = Cytochrome P450 2C9 (Homo sapiens, UniProt P11712); assay: Inhibition of CYP2C9 (unknown origin); type: ADME
BCRP = assay: Efflux ratio in MDCK-BCRP cells; type: ADME, cell-based, Canis lupus familiaris; settings: dog
[33] = biological target: T1, Sodium channel protein type 9 subunit alpha; assay: Inhibition of human Nav1.7 assessed as fold shift in IC50 in presence of BSA by sodium flux assay
Target sequence in this assay (Q15858 whole entry, looked up): as the sequence (Q15858 whole entry) above

Sequence of Sodium channel protein type 5 subunit alpha (Q14524 whole entry): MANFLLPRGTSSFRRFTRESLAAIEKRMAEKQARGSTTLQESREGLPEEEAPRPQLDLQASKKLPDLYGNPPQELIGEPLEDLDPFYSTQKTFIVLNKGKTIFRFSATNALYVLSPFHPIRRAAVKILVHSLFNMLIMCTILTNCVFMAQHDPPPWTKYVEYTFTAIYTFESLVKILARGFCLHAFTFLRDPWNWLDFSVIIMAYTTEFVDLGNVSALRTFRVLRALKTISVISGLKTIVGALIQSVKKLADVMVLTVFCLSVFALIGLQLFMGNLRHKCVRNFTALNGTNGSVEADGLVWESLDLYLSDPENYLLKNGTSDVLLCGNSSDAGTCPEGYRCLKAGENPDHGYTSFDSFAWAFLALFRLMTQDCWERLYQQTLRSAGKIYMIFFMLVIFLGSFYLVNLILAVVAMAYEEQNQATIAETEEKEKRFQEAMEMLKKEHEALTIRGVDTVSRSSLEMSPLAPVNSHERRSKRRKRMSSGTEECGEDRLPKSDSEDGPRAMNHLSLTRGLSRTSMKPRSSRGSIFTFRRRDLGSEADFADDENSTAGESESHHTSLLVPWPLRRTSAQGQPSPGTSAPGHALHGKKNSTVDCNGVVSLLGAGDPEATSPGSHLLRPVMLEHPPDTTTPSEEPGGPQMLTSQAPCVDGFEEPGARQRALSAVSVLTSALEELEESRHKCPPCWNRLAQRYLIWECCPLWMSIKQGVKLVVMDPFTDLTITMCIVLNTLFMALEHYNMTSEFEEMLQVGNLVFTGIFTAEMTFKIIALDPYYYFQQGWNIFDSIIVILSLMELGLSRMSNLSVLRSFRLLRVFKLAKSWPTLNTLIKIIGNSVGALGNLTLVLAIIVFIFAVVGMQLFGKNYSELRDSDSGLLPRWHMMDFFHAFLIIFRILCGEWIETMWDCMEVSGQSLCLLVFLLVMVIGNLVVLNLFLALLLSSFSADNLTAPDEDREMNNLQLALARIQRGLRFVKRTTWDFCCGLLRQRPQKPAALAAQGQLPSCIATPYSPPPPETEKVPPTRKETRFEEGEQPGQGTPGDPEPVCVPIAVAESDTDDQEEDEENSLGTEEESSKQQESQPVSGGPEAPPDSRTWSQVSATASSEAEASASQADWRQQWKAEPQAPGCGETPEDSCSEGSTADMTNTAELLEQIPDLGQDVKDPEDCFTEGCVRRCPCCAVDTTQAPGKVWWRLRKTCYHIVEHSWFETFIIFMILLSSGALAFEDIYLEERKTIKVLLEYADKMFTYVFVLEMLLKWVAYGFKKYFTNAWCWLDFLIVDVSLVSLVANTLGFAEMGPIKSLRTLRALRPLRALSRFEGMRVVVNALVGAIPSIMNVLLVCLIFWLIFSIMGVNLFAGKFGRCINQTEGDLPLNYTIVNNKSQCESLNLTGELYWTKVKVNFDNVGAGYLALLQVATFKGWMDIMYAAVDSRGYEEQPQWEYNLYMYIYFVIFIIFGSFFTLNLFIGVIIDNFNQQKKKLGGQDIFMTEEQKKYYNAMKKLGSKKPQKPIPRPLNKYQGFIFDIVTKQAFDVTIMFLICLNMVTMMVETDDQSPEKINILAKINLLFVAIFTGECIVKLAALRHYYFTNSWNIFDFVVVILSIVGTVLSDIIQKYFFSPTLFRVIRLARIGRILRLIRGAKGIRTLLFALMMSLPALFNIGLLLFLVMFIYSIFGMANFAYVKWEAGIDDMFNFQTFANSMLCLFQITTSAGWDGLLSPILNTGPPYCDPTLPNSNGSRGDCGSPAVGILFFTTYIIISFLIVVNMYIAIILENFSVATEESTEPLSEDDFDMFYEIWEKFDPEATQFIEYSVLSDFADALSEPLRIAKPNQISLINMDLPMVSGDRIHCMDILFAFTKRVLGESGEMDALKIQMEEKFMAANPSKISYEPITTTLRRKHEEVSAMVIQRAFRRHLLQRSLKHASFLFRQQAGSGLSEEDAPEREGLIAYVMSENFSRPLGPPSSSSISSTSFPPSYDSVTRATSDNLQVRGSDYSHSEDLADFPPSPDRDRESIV
Sequence of Cytochrome P450 3A4 (P08684 whole entry): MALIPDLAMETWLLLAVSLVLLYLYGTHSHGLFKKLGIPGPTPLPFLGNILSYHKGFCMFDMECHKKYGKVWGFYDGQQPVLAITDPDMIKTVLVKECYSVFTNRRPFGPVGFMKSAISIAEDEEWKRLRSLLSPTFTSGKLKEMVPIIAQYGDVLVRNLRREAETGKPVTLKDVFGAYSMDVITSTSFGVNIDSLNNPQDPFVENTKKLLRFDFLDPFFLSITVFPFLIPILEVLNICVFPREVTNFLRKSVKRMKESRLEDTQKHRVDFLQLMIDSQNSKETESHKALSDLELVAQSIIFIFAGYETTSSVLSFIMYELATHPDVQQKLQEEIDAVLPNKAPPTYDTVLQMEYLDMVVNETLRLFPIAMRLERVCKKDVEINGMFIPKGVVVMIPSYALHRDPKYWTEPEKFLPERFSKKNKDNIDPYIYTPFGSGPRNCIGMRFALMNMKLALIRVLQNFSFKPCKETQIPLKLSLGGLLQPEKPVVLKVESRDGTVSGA
Sequence of Cytochrome P450 2D6 (P10635 whole entry): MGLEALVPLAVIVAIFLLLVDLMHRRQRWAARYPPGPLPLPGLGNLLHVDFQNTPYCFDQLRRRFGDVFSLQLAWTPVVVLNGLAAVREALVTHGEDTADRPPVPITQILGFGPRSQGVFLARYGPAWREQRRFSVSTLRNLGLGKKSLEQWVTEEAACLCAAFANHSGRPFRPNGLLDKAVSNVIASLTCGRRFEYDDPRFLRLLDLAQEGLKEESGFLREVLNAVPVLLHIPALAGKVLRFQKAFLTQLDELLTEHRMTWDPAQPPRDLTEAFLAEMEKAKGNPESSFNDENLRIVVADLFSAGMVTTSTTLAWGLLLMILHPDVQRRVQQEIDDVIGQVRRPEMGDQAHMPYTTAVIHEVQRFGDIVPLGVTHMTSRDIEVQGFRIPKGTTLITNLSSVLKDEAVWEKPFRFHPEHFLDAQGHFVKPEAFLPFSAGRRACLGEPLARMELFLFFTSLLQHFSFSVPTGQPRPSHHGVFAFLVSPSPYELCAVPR

concentration at 2.5 h [3]: 20.8 µM
Vd [4]: 0.94 L/kg
AUC ([5]; po, 3 mg/kg): 9.6 µM·h
EC50 (Mus musculus [7]): 2720 nM
F [8]: 45%
IC50 (Cytochrome P450 1A2): > 10000 nM
solubility kinetic [9]: 58 µM (≈ 33.7 µg/mL)
CLhep predicted [10]: 11 mL/min/kg
concentration at 2.5 h [11]: 0.33 µM
fraction unbound [12]: 0.0001
Kp at 2.5 h [14]: ~0.12
concentration at 2.5 h [15]: 7.29 µM
fraction unbound [16]: 0.0001
IC50 (Cytochrome P450 3A4): > 10000 nM
half-life [17]: 1.2 h
half-life [18]: 3.6 h
CLhep predicted [19]: 6.2 mL/min/kg
efflux ratio (MDR1 (P-gp)): 2.8
IC50 [21]: 99 nM
IC50 (Cytochrome P450 2D6): > 10000 nM
IC50 [22]: 300 nM
Ki [1]: 4.9 nM
concentration at 2.5 h [23]: 1.77 µM
CLhep predicted [24]: 51 mL/min/kg
IC50 (Cytochrome P450 2C19): > 10000 nM
Papp A→B [25]: 19 ×10⁻⁶ cm/s
IC50 [26]: 13 nM
Cmax [27]: 1.5 µM
CLhep predicted [28]: 21 mL/min/kg
IC50 [30]: 15 nM
IC50 [31]: 25 nM
concentration at 2.5 h [32]: 50.9 µM
IC50 (Cytochrome P450 2C9): > 10000 nM
efflux ratio (BCRP): 0.92
Compound: C[C@@H]1[C@@H](C(=O)O)[C@H](C(=O)c2cc(C3CC3)c(OCC3CCN(Cc4c(Cl)cccc4Cl)CC3)cc2F)C[C@@H]1F
Activity (Mus musculus [2]): 81%
Activity (Mus musculus [6]): 100%
Activity (Mus musculus [13]): 35%
Activity (Mus musculus [20]): 96%
IC50 [29]: 5900 nM

Ki [1]: 60 nM
Compound: O=C(O)[C@@H]1[C@@H](F)CCN1C(=O)c1cc(C2CC2)c(OCC23CC4CC(CC(C4)C2)C3)cc1F

fold change (FC) [33]: 1
AUC ([5]; read-out: AUC): 0.16 µM·h
CLhep predicted [10]: 13 mL/min/kg
Ki [1]: 6.4 nM
CLhep predicted [24]: 64 mL/min/kg
IC50 [26]: 10 nM
Compound: C[C@@H]1[C@@H](C(=O)O)N(C(=O)c2cc(C3CC3)c(OCC34CC5CC(CC(C5)C3)C4)cc2F)C[C@@H]1F
IC50 [29]: 5800 nM

Ki [1]: 170 nM
Compound: O=C(O)[C@@H]1[C@H](F)CCN1C(=O)c1cc(C2CC2)c(OCC23CC4CC(CC(C4)C2)C3)cc1F

The remaining lines, values behind:

Compound: C[C@H]1CCN(C(=O)c2cc(C3CC3)c(OCC34CC5CC(CC(C5)C3)C4)cc2F)[C@@H]1C(=O)O
Ki [1]: 10 nM

Compound: O=C(O)[C@@H]1C[C@H](O)CN1C(=O)c1cc(C2CC2)c(OCC23CC4CC(CC(C4)C2)C3)cc1F
Ki [1]: 150 nM

Compound: O=C(O)[C@@H]1C[C@@H](F)CN1C(=O)c1cc(C2CC2)c(OCC23CC4CC(CC(C4)C2)C3)cc1F
Ki [1]: 7 nM

Compound: O=C(O)[C@@H]1C[C@H](F)CN1C(=O)c1cc(C2CC2)c(OCC23CC4CC(CC(C4)C2)C3)cc1F
Ki [1]: 560 nM

Compound: O=C(O)[C@@H]1C[C@@H](O)CN1C(=O)c1cc(C2CC2)c(OCC23CC4CC(CC(C4)C2)C3)cc1F
Ki [1]: 390 nM

Compound: C[C@@H]1C[C@@H](C(=O)O)N(C(=O)c2cc(C3CC3)c(OCC34CC5CC(CC(C5)C3)C4)cc2F)C1
Ki [1]: 85 nM

Compound: O=C(O)[C@@H]1CC(F)(F)CN1C(=O)c1cc(C2CC2)c(OCC23CC4CC(CC(C4)C2)C3)cc1F
Ki [1]: 35 nM

Compound: N#C[C@H]1C[C@@H](C(=O)O)N(C(=O)c2cc(C3CC3)c(OCC34CC5CC(CC(C5)C3)C4)cc2F)C1
Ki [1]: 870 nM
